Results on 1 compound are retold here after article PMC5654414, “In vitro and in vivo comparative and competitive activity-based protein profiling of GH29 α-L-fucosidases” (Chemical Science, 2015).

Series [1] deals with T1, FUCA2 (Homo sapiens, UniProt Q9BTY2).
T1 construct: expressed in transfected cells; host or cells: COS-7
T1 sequence (Q9BTY2 29-467): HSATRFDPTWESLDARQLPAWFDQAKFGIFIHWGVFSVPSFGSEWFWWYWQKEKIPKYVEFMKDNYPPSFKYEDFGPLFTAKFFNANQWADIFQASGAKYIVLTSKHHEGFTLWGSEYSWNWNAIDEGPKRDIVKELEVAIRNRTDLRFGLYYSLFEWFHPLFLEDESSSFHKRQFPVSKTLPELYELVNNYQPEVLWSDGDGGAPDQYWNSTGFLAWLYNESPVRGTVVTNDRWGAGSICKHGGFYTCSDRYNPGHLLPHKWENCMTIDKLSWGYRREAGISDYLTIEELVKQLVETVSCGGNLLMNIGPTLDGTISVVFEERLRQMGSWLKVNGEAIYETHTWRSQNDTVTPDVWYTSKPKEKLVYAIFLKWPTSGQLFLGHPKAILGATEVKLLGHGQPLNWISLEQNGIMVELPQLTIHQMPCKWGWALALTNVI
Kind of series: In vitro ABP labeling of FUCA2 overexpressed in COS cells. The series is classed as binding. From the text:
(§1) Subsequently, we exposed lysates of spleens from a healthy human individual and a patient suffering from Gaucher disease to ABP 1.
(§2) The coding sequences of H. sapiens FUCA1 (NCBI reference sequence XM_005245821.1, using forward primer 5′-[…]-3′ and reverse primer 5′-[…]-3′), and of H. sapiens FUCA2 (NCBI reference sequence NM_032020.4, using forward primer 5′-[…] […]-3′ and reverse primer 5′-[…] […]-3′) were amplified via PCR and cloned into pDNOR-221 and thereafter sub-cloned in pcDNA™-DEST40 vector using the Gateway system (Invitrogen). Correctness of all constructs was verified by sequencing. Confluent COS-7 cells were transfected with pcDNA3.1 empty vector (Mock) or the vector with described insert in conjunction with FuGENE (Roche).
(§3) All pre-incubations and ABP labeling-reactions occurred for 30 min at 37 °C. Total lysates (50 μg), medium (500 μg) or purified protein preparations (5 μg) were labeled with 1 μM JJB256 1 or JJB244 2, dissolved in 150 mM McIlvaine buffer, pH 4.5, incubating for 30 min at 37 °C. […] Wet slab-gels were scanned on fluorescence using a Typhoon Variable Mode Imager (Amersham Biosciences) using λEX 488 nm and λEM 520 nm (band pass filter 40 nm) for green fluorescent JJB256 1 and λEX 532 nm and λEM 610 nM (band pass filter 30 nm) for red fluorescent JJB244 2 and JJB75.

The target in series [2] is T2, FUCA1 (Homo sapiens, UniProt P04066).
T2 sequence (P04066 32-466): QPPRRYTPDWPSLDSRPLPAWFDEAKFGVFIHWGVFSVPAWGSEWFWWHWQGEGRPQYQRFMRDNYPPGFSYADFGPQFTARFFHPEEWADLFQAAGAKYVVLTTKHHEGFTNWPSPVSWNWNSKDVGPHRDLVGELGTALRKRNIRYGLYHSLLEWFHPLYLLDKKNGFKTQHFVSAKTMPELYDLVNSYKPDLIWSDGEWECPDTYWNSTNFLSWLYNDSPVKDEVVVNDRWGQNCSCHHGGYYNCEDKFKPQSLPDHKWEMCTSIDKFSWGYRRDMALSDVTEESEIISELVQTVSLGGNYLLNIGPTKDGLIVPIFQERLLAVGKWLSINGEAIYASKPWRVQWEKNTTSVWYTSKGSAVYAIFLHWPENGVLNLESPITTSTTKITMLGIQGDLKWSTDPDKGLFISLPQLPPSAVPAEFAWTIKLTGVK
The experiment in a line: In vitro ABP labeling of FUCA1 overexpressed in COS cells. The series is classed as binding.
Description: as §1, §2, §3

For series [3], the system named is retaining α-L-fucosidases. The experiment in a line: In vivo labeling of α-L-fucosidases in mice. Also noted: species or system C57Bl/6J mice. As for the experimental part:
The ability of 1 to label α-L-fucosidase in living mice was investigated next. Four wild-type C57Bl/6J male mice were injected with 100 μL vehicle (PBS) or PBS containing 10, 100 or 1000 pmol 1. After two hours, the mice were anesthetized, perfused with PBS and then brain, spleen, liver and kidney tissues were isolated. Tissue homogenates were prepared and each lysate was labeled prior to gel electrophoresis with red-fluorescent cyclophellitol β-aziridine JJB75, which labels β-exoglucosidases as loading control (ESI Fig. S6 ^†). Furthermore, tissue homogenates of vehicle-treated animals were labeled with excess 1 to visualize the maximal α-L-fucosidase labeling achievable in each tissue.
The appropriate ethics committee for animal experiments approved all experimental procedures. Wild-type C57Bl/6J male mice were obtained from Harlan and fed a commercially available lab diet (RMH-B; Hope Farms). Four C57BL/6J mice were injected intraperitoneally with 100 μL sterile PBS (vehicle) or PBS containing 10, 100, or 1000 pmol of ABP 1 (about 0.2 μg kg^–1, 2 μg kg^–1, and 20 μg kg^–1, respectively). At 2 h post-administration, urine was collected and the mice were anesthetized with FFM mix (25/25/50 fentanylcitrate/midazalam/H2O), blood was collected and perfused with PBS at 3.0 mL min^–1. Then urine and organs were collected and directly frozen in liquid nitrogen. Homogenates were made in 25 mM potassium phosphate buffer, pH 6.5, supplemented with 0.1% (v/v) Triton X-100 and protease inhibitor cocktail (Roche). After determination of protein concentration (BCA kit, Pierce), 50 μg total protein was incubated with 100 nM red fluorescent JJB75 and analyzed by SDS-PAGE. As controls, matching tissue homogenates of vehicle-treated animals were concomitantly labeled with 1 μM ABP 1 and 100 nM JJB75 prior to SDS-PAGE.

Series [4] addresses T3, recombinant human FUCA1 (human lysosomal α-L-fucosidase) (Homo sapiens, UniProt P04066).
T3 construct: expressed in transfected cells; host or cells: COS-7
T3 sequence (P04066 32-466): T2 sequence (P04066 32-466)
The experiment in a line: In vitro inhibition of FUCA1 activity, 4-methylumbelliferyl-α-L-fucopyranoside substrate, lysates of COS-7 cells over-expressing enzyme. The series is classed as biochemical. Here is the method:
Having the cyclophellitol aziridine inhibitors and probes in hand, we determined their inhibitory potency towards the human lysosomal α-L-fucosidase, FUCA1.
The enzymatic activity of α-L-fucosidase was assayed at 37 °C by incubating with 1.5 mM 4-methylumbelliferyl-α-L-fucopyranoside as substrate in 150 mM McIlvaine buffer, pH 4.5, supplemented with 0.1% (w/v) BSA. […] The reaction was quenched by adding excess NaOH–glycine (pH 10.6), after which fluorescence was measured with a fluorimeter LS55 (Perkin Elmer) using λEX 366 nm and λEM 445 nm.

As usually defined, the IC50 is the concentration at which inhibition is half-maximal. Regarding `CC1=CC(C)=[N+]2C1=C(CCCCc1cn(CCCCCCCC(=O)N3[C@@H]4[C@@H](C)[C@@H](O)[C@@H](O)[C@H](O)[C@@H]43)nn1)c1c(C)cc(C)n1[B-]2(F)F` [compound 1], the labeling of enzyme result in series [1] and in series [2] was “labeled” throughout. Also, in series [3] (concluded from absent brain labeling), the brain penetration result is given as “does not penetrate the brain”. Besides, in series [3] (injection of 1000 pmol, 2 h), the “in vivo labeling of α-fucosidase in spleen, liver and kidney” value was “substantial labeling”. Besides, in series [3] (intraperitoneal, 10, 100 or 1000 pmol, 2 h), the “in vivo labeling of retaining α-L-fucosidases in spleen, liver and kidney” value is on record as “dose-dependent labeling”. Further, the half-inhibitory concentration (IC50) in series [4] stood at 6.9 ± 0.8 nM.
